Molecules are shown by their SMILES. Square brackets hold non-standard residues; d marks the D form. Peptide text beside a SMILES is read from it. * marks the point of attachment. Tyr(3,5-(NO2)2) = N[C@@H](Cc1cc([N+](=O)[O-])c(O)c([N+](=O)[O-])c1)C(=O)O; His(Trt) = N[C@@H](Cc1cn(C(c2ccccc2)(c2ccccc2)c2ccccc2)cn1)C(=O)O; His(τ-CHPh2) = N[C@@H](Cc1cn(C(c2ccccc2)c2ccccc2)cn1)C(=O)O; dPhe(4-Me) = Cc1ccc(C[C@@H](N)C(=O)O)cc1; Decanoyl = CCCCCCCCCC(=O)*; Octanoyl = CCCCCCCC(=O)*; Orn = NCCC[C@H](N)C(=O)O

The text below walks through data of patent US20250340591A1, “COMPOSITION FOR PREVENTING OR TREATING INFLAMMATORY BOWEL DISEASE CONTAINING NOVEL COMPOUND” (ANYGEN CO., LTD., priority 2021, published 2025).

One data set has as its target T1, GPR39 (Homo sapiens, UniProt O43194).
T1 sequence (O43194 1-453): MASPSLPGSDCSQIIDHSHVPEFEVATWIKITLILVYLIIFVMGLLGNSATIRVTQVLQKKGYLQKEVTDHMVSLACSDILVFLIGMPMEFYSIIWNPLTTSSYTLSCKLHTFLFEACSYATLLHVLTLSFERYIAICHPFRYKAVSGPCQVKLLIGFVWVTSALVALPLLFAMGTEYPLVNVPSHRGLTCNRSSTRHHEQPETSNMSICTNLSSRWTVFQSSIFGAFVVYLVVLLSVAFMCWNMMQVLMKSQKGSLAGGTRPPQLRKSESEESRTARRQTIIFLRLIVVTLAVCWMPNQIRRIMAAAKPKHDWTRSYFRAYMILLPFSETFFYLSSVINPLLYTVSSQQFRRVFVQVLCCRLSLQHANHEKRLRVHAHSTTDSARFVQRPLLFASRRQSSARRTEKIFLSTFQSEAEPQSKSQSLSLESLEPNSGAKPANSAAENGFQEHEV
The experiment in a line: luciferase assay system (SRE luciferase reporter gene, CV-1 cells expressing GPR39).
Settings: not given
Details: expressed in transfected cells; host or cells: CV-1 fibroblast cell line (Korea Cell Line Bank), adenoviral transduction at 50 MOI. The class given is cell-based.
Regarding `CCCCCCCCCC(=O)NCCCC[C@H](NC(=O)[C@@H](N)Cc1cn(C(c2ccccc2)(c2ccccc2)c2ccccc2)cn1)C(=O)N[C@@H](Cc1ccccc1)C(=O)N[C@@H](Cc1ccc(O)cc1)C(=O)O` [HKFY-24, N6-decanoyl-N2-(Nt-trityl-L-histidyl)-L-lysyl-L-phenylalanyl-L-tyrosine] (H-[His(Trt)]K(Decanoyl)FY-OH), the “ECmax (−fold induction over basal)” value is reported as 7.03 ± 0.57 fold induction over basal.
With `CCCCCCCC(=O)NCCCC[C@H](NC(=O)[C@@H](N)Cc1cn(CCc2ccccc2)cn1)C(=O)N[C@@H](Cc1ccccc1)C(=O)N[C@@H](Cc1ccc(O)cc1)C(=O)O` [HKFY-9, N6-octanoyl-N2-(Nt-phenethyl-L-histidyl)-L-lysyl-L-phenylalanyl-L-tyrosine], the “ECmax (−fold induction over basal)” value came out at 21 ± 2.52 fold induction over basal.
Still for that read-out and setting: then `CCCCCCCC(=O)NCCCC[C@H](NC(=O)[C@@H](N)Cc1cn(C(c2ccccc2)c2ccc(OC)cc2)cn1)C(=O)N[C@@H](Cc1ccccc1)C(=O)N[C@@H](Cc1ccc(O)cc1)C(=O)O` (stereo partly drawn) [HKFY-20, N2-(Nt-((4-methoxyphenyl)(phenyl)methyl)-L-histidyl)-N6-octanoyl-L-lysyl-L-phenylalanyl-L-tyrosine], with 20.26 ± 2.7 fold induction over basal.
Same read-out and setting: then `CCCCCCCC(=O)NCCC[C@H](NC(=O)[C@@H](N)Cc1cn(C(c2ccccc2)c2ccccc2)cn1)C(=O)N[C@H](Cc1ccc(C)cc1)C(=O)N[C@@H](Cc1ccc(O)cc1)C(=O)O` [HKFY-71, ((R)-2-((S)-2-((S)-2-amino-3-(1-benzhydryl-1H-imidazol-4-yl)propanamido)-5-octanamidopentanamido)-3-(p-tolyl)propanoyl)-L-tyrosine] (H-[His(τ-CHPh2)][Orn](Octanoyl)[dPhe(4-Me)]Y-OH), with 16.4 ± 2.51 fold induction over basal.
Still for that read-out and setting: the same measure for `CCCCCCCC(=O)NCCCC[C@H](NC(=O)[C@@H](N)Cc1cn([C@H](c2ccccc2)c2ccc(C)cc2)cn1)C(=O)N[C@@H](Cc1ccccc1)C(=O)N[C@@H](Cc1ccc(O)cc1)C(=O)O` [HKFY-22, N6-octanoyl-N2-(Nt-((R)-phenyl(p-tolyl)methyl)-L-histidyl)-L-lysyl-L-phenylalanyl-L-tyrosine]: 21.3 ± 1.8 fold induction over basal; for `CCCCCCCC(=O)NCCCC[C@H](NC(=O)[C@@H](N)Cc1c[nH]c(-c2ccc(C(C)(C)C)cc2)n1)C(=O)N[C@H](Cc1ccc(C)cc1)C(=O)N[C@@H](Cc1ccc(O)cc1)C(=O)O` [HKFY-60, ((R)-2-((S)-2-((S)-2-amino-3-(2-(4-(tert-butyl)phenyl)-1H-imidazol-4-yl)propanamido)-6-octanamidohexanamido)-3-(p-tolyl)propanoyl)-L-tyrosine]: 28.2 ± 2.5 fold induction over basal; for `CCCCCCCC(=O)NCCCC[C@H](NC(=O)[C@@H](N)Cc1cn(-c2ccc(C(C)(C)C)cc2)cn1)C(=O)N[C@H](Cc1ccc(C)cc1)C(=O)N[C@@H](Cc1ccc(O)cc1)C(=O)O` [HKFY-61, ((R)-2-((S)-2-((S)-2-amino-3-(1-(4-(tert-butyl)phenyl)-1H-imidazol-4-yl)propanamido)-6-octanamidohexanamido)-3-(p-tolyl)propanoyl)-L-tyrosine]: 9.88 ± 1.8 fold induction over basal.

The same data set, now with this note: CV-1 cells, GPR39 and SRE luciferase adenovirus, 6 hours treatment.
With `CCCCCCCC(=O)NCCCC[C@H](NC(=O)[C@@H](N)Cc1cn(C(c2ccccc2)c2ccccc2)cn1)C(=O)N[C@H](Cc1ccc(C)cc1)C(=O)N[C@@H](Cc1cc([N+](=O)[O-])c(O)c([N+](=O)[O-])c1)C(=O)O` [HKFY-69, (S)-2-((R)-2-((S)-2-((S)-2-amino-3-(1-benzhydryl-1H-imidazol-4-yl)propanamido)-6-octanamidohexanamido)-3-(p-tolyl)propanamido)-3-(4-hydroxy-3,5-dinitrophenyl)propanoic acid] (H-[His(τ-CHPh2)]K(Octanoyl)[dPhe(4-Me)][Tyr(3,5-(NO2)2)]-OH), the “ECmax (−fold induction over basal)” value is reported as 12.2 ± 2.5 fold induction over basal.
